Measured values as given in ChEMBL document CHEMBL5154860 (J Med Chem, 2022).

Assays:
[1] = in vivo; settings: Sprague-Dawley, rat, brain / plasma, iv, 0.2 mg/kg
[2] = in vivo; settings: Sprague-Dawley, rat, brain / plasma, iv, 0.2 mg/kg; remark: listed apart in the source
[3] = in vitro; settings: human, liver microsomes
[4] = in vivo; settings: Sprague-Dawley, rat, iv, 1 mg/kg
[5] = in vivo; settings: Sprague-Dawley, rat, iv, 1 mg/kg; remark: listed apart in the source
[6] = in vivo; settings: Sprague-Dawley, rat, iv, 1 mg/kg; remark: listed apart in the source
[7] = in vivo; settings: Sprague-Dawley, rat, iv, 1 mg/kg; remark: listed apart in the source
[8] = in vivo; settings: Sprague-Dawley, rat, iv, 1 mg/kg; remark: listed apart in the source
[9] = in vivo; settings: Sprague-Dawley, rat, po, 10 mg/kg
[10] = in vivo; settings: Sprague-Dawley, rat, po, 10 mg/kg; remark: listed apart in the source
[11] = in vivo; settings: Sprague-Dawley, rat, po, 10 mg/kg; remark: listed apart in the source
[12] = in vivo; settings: Sprague-Dawley, rat, po, 10 mg/kg; remark: listed apart in the source
[13] = in vitro; settings: Sprague-Dawley, rat, liver microsomes
[14] = in vitro; settings: dog, MDCK-MDR1

| Structure (SMILES) | Kp [1] | Kp uu [2] | further results |
| --- | --- | --- | --- |
| Cn1ccnc1SCC1CCN(S(=O)(=O)c2ccc3ncsc3c2)CC1 | < 0.48 | < 0.5 |  |
| Cn1ccnc1SCC1CCN(S(=O)(=O)c2ccc3c(c2)CCO3)CC1 | 0.08 | 0.11 | CLint scaled at […], 1 µM [3]: 1270 mL/min/kg |
| O=S(=O)(c1ccc2c(c1)CCO2)N1CCC(CSc2nccs2)CC1 | 0.27 | 0.23 |  |
| Cc1cn(C)c(SCC2CCN(S(=O)(=O)c3ccc4c(c3)CCO4)CC2)n1 | 0.07 | 0.19 |  |
| Cc1nc(SCC2CCN(S(=O)(=O)c3ccc4c(c3)CCO4)CC2)n(C)c1C | 0.22 | 0.32 |  |
| Cn1ccnc1SCC1CCN(S(=O)(=O)c2ccc3c(c2)OCO3)CC1 | 0.53 | 1.88 |  |
| Cn1ccnc1SC[C@H]1CCN(S(=O)(=O)c2ccc3c(c2)CCO3)C[C@@H]1F |  |  | half-life at 24 h [4]: 14.6 h; MRT at 24 h [5]: 10.7 h; clearance at 24 h [6]: 56.5 mL/min/kg; Vd at 24 h [7]: 36.6 L/kg; AUC at 24 h [8]: 301 ng·h/mL; Cmax at 24 h [9]: 433 ng/mL; Tmax at 24 h [10]: 0.25 h; AUC at 24 h [11]: 830 ng·h/mL; bioavailability at 24 h [12]: 27.6%; CLint scaled at […], 1 µM [13]: 1770 mL/min/kg; CLint scaled at […], 1 µM [3]: 318 mL/min/kg; Papp [14]: 26.8 ×10⁻⁶ cm/s |
| Cc1nnc(SCC2CCN(S(=O)(=O)c3ccc4c(c3)CCO4)CC2)s1 | 1.25 | 1.1 |  |
| CC(Sc1nccn1C)C1CCN(S(=O)(=O)c2ccc3c(c2)CCO3)CC1 (centres undefined) | 0.22 | 0.29 |  |
